Values belong to the compound of their own block, whether it stands above or below them. Calls of active or inactive are those of the source.
What was measured:
[1] = biological target: Potassium voltage-gated channel subfamily KQT member 2 (Rattus norvegicus, UniProt O88943); experiment: blockers of KCNQ2 channel current – cell-based, automated electrophysiology, set II, rat KCNQ2, dose response (AID 588637); assay type: functional
Caspase-3 [2] = biological target: T1, Caspase-3 (Homo sapiens, UniProt P42574); experiment: human caspase-3 protease activity blockade – biochemical, fluorescence, cherry-picked samples, selectivity assay for caspase-6 allosteric inhibitor project, dose response (AID 743291)
T1 sequence (P42574 whole entry): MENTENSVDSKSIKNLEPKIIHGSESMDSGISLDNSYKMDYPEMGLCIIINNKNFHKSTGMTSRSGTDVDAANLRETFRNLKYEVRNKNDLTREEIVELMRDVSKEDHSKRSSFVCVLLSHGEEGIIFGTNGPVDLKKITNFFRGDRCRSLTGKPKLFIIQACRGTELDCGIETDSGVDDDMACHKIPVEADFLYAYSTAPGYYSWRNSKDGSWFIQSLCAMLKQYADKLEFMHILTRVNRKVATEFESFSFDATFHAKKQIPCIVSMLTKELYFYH

Caspase-8 = Caspase-8 (Homo sapiens, UniProt Q14790); experiment: inhibitors of purified CASP8 protease – biochemical, Z-IETD-R110 fluorescence, cherry-picked samples, selectivity assay for caspase-6 inhibitor project, dose response (AID 743294)
[3] = biological target: T2, Sentrin-specific protease 8 (Homo sapiens, UniProt Q96LD8); assay type: functional
T2 sequence (Q96LD8 whole entry): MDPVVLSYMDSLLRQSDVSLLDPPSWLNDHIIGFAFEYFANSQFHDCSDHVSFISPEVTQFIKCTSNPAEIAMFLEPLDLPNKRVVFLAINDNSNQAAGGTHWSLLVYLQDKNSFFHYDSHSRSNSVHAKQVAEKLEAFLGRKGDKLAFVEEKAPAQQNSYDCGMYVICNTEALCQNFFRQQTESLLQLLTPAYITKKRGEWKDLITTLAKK

Caspase-3 [4] = biological target: T1, Caspase-3; experiment: Dose-response confirmation of uHTS inhibitor hits of Sentrin-Specific Protease 8 in a Caspase-3 Fluorescence assay.; assay type: functional
Caspase-9 = biological target: T3, Caspase-9 (Homo sapiens, UniProt P55211); experiment: inhibitors of purified CASP9 protease – biochemical, fluorescence, plate reader, cherry-picked samples, selectivity assay for caspase-6 inhibitor project, dose response (AID 743293)
T3 sequence (P55211 whole entry): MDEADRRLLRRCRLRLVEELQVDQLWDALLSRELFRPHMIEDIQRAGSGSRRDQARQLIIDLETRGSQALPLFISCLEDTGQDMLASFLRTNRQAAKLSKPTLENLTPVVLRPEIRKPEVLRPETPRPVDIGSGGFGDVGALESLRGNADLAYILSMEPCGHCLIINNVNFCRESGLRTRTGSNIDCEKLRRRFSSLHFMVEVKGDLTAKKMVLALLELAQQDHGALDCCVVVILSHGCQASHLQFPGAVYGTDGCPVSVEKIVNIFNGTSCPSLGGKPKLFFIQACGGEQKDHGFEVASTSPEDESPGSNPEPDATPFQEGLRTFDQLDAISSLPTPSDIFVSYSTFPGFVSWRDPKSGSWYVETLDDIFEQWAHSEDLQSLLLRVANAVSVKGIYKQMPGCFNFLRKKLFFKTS

Caspase-6 = biological target: T4, Caspase-6 (Homo sapiens, UniProt P55212); experiment: inhibition of CASP6 peptide cleavage – biochemical, VEID-R110 fluorescence, cherry-pick, dose response (AID 720632)
T4 sequence (P55212 whole entry): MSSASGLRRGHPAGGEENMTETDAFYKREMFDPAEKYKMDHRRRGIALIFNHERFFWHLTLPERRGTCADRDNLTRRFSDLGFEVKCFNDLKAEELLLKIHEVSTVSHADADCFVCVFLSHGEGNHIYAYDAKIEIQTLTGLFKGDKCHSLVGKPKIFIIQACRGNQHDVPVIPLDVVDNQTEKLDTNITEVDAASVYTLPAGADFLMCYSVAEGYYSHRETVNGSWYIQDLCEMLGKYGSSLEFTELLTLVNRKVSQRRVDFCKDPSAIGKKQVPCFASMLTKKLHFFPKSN

[5] = biological target: T2, Sentrin-specific protease 8; assay type: functional; remark: listed apart in the source
Caspase-7 = Caspase-7 (Homo sapiens, UniProt P55210); experiment: caspase-7 enzyme inhibition, selectivity check – biochemical, DEVD-R110 fluorescence, cherry-pick, selectivity assay for caspase-6 inhibitor project, dose response (AID 743295); assay type: functional
Sequence of Caspase-7 (P55210 24-198 limits assumed): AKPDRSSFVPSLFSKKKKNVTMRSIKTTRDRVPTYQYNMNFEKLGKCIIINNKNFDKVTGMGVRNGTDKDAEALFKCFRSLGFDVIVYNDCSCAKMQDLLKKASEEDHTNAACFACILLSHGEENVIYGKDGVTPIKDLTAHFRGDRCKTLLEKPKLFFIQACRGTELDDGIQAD
Sequence of Caspase-7 (P55210 207-303 limits assumed): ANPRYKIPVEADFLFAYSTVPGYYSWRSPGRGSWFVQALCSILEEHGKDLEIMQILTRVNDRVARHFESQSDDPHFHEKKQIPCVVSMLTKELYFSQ

[6] = biological target: T5, Mitochondrial peptide methionine sulfoxide reductase (Bos taurus, UniProt P54149); assay type: functional;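 as to IC50: absorbance read-out, biochemical high-throughput dose-response screen for MsrA inhibitors, confirmatory; recombinant bovine MsrA coupled to E. coli TrxB with NADPH and selenocystamine; potency is for inhibitors of MsrA activity on DMSO substrate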
T5 sequence (P54149 whole entry): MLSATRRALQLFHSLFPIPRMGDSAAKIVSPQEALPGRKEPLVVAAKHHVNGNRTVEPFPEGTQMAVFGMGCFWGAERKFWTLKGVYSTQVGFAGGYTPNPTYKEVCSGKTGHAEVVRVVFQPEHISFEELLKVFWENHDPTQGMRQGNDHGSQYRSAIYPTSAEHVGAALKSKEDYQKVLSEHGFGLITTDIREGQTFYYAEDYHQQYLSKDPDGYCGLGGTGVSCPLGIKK

[7] = biological target: ATP-dependent translocase ABCB1 (Homo sapiens, UniProt P08183); experiment: inhibition of P-gp mediated JC-1 efflux – Jurkat-DNR cells, flow cytometry, dose response (AID 1689); assay type: functional
Sequence of ATP-dependent translocase ABCB1 (P08183 whole entry): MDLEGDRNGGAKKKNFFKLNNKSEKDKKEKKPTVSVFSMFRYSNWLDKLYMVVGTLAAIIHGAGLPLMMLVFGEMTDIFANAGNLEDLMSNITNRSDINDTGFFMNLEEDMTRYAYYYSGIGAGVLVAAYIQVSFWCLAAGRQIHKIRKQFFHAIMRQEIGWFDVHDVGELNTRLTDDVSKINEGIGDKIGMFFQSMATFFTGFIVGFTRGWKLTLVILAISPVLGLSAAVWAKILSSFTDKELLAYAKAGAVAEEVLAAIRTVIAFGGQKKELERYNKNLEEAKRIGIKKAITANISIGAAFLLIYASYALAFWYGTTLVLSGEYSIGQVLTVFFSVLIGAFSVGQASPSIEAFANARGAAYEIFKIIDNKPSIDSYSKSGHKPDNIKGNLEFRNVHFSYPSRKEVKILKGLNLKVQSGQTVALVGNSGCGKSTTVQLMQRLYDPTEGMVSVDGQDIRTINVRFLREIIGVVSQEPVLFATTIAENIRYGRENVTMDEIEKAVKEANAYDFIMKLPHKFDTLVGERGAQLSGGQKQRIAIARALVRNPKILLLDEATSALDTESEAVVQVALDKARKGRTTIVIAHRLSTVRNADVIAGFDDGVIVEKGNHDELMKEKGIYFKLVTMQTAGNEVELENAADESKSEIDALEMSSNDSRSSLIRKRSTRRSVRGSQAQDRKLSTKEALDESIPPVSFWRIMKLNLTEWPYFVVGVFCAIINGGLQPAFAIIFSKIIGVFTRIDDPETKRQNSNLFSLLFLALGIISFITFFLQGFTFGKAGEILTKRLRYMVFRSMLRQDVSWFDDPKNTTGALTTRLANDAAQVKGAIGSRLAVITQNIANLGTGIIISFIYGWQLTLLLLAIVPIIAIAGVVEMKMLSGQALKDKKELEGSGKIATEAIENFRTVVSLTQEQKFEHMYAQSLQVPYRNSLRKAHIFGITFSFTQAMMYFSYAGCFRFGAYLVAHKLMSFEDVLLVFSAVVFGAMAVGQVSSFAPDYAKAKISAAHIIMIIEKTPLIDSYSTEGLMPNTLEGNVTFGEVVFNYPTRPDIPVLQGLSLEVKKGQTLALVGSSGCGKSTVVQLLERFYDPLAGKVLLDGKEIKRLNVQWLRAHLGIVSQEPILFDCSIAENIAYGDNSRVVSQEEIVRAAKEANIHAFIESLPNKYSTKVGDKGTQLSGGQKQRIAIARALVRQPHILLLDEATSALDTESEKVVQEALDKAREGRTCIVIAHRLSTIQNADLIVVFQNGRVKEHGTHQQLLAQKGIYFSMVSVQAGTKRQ

[8] = biological target: T5, Mitochondrial peptide methionine sulfoxide reductase; experiment: Absorbance-based biochemical high throughput dose response assay for activators of Methionine sulfoxide reductase A (MsrA).; assay type: functional
[9] = biological target: T6, Sentrin-specific protease 1 (Homo sapiens, UniProt Q9P0U3); experiment: Dose response confirmation of small molecule inhibitors of the catalytic domain of the SUMO protease, SENP1 in a FRET assay.; assay type: functional; conditions: read-out: IC50_Mean
T6 sequence (Q9P0U3 whole entry, the tested form may be a part): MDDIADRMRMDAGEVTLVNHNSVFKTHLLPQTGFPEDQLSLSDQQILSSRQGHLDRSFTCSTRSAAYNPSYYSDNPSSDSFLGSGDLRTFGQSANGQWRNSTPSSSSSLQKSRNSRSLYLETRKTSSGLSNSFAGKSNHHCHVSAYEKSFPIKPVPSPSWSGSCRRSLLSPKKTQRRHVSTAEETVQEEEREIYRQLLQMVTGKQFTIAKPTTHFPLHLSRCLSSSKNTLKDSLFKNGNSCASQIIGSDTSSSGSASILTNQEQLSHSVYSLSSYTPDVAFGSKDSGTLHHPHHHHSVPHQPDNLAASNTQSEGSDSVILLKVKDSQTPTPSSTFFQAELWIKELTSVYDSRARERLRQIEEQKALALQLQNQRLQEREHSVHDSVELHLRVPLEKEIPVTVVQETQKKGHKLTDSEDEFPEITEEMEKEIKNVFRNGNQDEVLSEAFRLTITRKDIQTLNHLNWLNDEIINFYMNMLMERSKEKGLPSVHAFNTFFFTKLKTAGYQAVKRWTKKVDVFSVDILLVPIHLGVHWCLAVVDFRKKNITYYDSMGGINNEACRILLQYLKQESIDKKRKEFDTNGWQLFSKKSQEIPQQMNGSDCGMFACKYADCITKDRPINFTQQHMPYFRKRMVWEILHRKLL

[10] = biological target: T6, Sentrin-specific protease 1; experiment: SENP1 catalytic domain blockers, concentration series – biochemical, kinetic FRET, dose response (AID 651697); assay type: functional; conditions: read-out: IC50_Mean
[11] = biological target: T7, Rac GTPase-activating protein 1 (Homo sapiens, UniProt Q9H0H5); experiment: blockers of MgcRacGAP-driven Rac1 GTP hydrolysis – biochemical, ADP Hunter fluorescence, primary and confirmatory, confirmation (AID 624330); assay type: functional
T7 sequence (Q9H0H5 whole entry): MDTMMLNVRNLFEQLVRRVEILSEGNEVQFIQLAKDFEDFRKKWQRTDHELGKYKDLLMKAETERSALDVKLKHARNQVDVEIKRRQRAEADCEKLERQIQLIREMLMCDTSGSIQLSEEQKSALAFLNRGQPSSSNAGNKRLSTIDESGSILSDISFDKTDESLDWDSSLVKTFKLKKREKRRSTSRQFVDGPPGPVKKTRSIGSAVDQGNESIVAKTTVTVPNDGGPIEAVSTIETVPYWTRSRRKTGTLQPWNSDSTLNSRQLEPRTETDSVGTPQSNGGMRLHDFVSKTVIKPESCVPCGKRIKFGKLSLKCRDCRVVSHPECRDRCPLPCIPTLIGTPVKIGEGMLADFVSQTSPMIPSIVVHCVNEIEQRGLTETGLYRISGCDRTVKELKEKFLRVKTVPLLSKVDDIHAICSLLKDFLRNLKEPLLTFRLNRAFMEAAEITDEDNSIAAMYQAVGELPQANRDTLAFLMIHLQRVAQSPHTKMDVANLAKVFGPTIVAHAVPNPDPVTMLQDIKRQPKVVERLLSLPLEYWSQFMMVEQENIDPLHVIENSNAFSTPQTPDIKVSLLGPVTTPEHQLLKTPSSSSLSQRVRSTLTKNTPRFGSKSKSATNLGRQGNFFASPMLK

[12] = biological target: DNA (cytosine-5)-methyltransferase 1 (Homo sapiens, UniProt P26358); experiment: inhibition of DNA methylation by DNMT1 – biochemical, fluorescent molecular beacon, confirmation (AID 602386); assay type: functional
Sequence of DNA (cytosine-5)-methyltransferase 1 (P26358 whole entry): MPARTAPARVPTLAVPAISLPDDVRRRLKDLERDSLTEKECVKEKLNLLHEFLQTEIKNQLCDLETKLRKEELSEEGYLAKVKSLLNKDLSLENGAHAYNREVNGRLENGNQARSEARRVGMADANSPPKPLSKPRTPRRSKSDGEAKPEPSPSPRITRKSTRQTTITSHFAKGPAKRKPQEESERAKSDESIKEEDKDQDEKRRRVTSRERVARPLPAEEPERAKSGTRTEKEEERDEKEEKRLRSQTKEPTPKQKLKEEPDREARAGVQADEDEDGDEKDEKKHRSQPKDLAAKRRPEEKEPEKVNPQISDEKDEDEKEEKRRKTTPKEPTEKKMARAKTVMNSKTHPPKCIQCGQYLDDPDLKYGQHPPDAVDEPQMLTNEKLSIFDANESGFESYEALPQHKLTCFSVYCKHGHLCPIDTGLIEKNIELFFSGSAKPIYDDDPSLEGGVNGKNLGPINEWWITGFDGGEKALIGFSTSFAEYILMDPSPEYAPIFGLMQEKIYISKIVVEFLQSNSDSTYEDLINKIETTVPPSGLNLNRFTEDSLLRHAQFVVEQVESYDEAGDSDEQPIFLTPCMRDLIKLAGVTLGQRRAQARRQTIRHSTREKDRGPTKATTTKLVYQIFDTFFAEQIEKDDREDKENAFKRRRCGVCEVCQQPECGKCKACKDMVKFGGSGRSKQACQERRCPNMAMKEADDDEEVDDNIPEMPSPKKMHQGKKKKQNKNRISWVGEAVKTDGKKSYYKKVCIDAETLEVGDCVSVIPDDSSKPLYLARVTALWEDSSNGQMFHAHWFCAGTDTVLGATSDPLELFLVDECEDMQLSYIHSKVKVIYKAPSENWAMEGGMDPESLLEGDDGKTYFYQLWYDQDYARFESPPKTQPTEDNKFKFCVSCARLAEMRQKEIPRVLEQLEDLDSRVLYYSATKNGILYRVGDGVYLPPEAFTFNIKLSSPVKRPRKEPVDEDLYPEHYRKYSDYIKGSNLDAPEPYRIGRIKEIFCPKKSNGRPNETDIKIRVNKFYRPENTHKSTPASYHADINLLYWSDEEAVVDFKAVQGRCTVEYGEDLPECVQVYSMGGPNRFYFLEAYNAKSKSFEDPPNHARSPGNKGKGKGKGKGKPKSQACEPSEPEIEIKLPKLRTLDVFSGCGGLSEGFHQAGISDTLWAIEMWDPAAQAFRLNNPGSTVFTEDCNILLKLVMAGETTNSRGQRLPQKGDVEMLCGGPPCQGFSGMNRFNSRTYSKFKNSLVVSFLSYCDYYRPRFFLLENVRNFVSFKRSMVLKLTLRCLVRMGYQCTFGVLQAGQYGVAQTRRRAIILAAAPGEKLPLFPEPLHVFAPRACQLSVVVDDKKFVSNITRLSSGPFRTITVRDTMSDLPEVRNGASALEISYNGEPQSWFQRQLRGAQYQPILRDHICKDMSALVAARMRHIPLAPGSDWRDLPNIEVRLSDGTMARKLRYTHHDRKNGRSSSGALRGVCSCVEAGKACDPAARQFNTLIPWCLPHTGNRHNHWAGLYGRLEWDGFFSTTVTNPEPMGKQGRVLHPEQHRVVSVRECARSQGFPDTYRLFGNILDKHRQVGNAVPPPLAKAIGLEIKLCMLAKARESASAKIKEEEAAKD

[13] = viability loss in HeLa cells – cytotoxicity control for MgcRacGAP inhibitor project, dose response (AID 624300); assay type: functional

Sequence of Potassium voltage-gated channel subfamily KQT member 2 (O88943 whole entry): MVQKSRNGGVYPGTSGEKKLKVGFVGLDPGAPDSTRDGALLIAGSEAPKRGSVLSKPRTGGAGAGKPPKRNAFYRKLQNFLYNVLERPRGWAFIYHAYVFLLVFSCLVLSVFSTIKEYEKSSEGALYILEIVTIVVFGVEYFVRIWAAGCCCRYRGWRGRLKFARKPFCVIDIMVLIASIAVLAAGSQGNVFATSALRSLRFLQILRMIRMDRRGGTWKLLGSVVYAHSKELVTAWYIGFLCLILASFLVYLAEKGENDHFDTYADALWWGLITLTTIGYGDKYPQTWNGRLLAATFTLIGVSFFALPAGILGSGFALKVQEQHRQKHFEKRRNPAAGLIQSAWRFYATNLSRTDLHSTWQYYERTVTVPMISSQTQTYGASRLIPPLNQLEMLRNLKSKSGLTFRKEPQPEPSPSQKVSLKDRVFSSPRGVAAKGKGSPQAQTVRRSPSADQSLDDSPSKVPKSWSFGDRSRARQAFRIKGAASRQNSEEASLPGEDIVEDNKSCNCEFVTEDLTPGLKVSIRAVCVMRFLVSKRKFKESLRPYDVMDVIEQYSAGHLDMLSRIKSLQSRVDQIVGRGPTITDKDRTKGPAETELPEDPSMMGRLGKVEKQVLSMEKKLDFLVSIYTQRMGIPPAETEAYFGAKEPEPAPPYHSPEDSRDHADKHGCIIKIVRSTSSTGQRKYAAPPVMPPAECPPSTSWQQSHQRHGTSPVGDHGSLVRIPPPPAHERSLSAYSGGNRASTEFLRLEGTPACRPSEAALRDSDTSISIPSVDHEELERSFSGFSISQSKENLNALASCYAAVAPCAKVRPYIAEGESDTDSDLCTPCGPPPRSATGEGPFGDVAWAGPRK

Compound: CC[C@H](CO)Oc1cc(NCc2cccc(N)c2)c2ncn(C(C)C)c2c1
AC50 (Caspase-3 [2]): 3.87 µM (active) | AC50 (Caspase-8): 31.8 µM (active) | IC50 [3]: 1.87 µM (active) | IC50 (Caspase-3 [4]): 8.35 µM (active) | AC50 (Caspase-9): 46.5 µM (active) | AC50 (Caspase-6): 1.58 µM (active) | IC50 [5]: 1.65 µM (active) | AC50 (Caspase-7): 4.66 µM (active)

Compound: CCCCn1c(O)c(/N=N/c2ccccn2)c2ccccc21
EC50 [7]: 23.9 µM (inactive)

Compound: c1ccc2c(c1)c1c(c3ccccc32)CN2CCCC2C1 (configuration not stated)
IC50 [11]: 111 µM (active) | IC50 [12]: > 99 µM (inactive) | CC50 [13]: 100 µM (active)

Second part, the compound after the results:

IC50 [1]: 1.23 µM (active)
Compound: CC(C)(C)N1CC(c2nc3ccccc3n2Cc2ccc(Cl)cc2)CC1=O (configuration not stated)

IC50 [6]: 134 µM (inactive)
Compound: Cc1ccc(C(=O)N/N=C/C=C/c2ccccc2)o1

EC50 [8]: > 104 µM (inactive)
Compound: CN(CC(=O)Nc1ccccc1N1CCOCC1)S(=O)(=O)c1ccc(Cl)cc1

IC50 [9]: 8.47 µM (active) | IC50 [10]: 9.87 µM (active)
Compound: N#Cc1ccc(-c2nc3ccc(Cl)cn3c2Cc2ccccc2C(F)(F)F)cc1

From ChEMBL document CHEMBL1201862, “PubChem BioAssay data set” (2004)
